Data from US6822100B2 (Bristol-Myers Squibb Company, priority 2001, dated 2004).
Structures can show the parent of a compound that is named as a salt. Where two headings read alike, the source gives them in different places.

Experiments:
[1] = target: T1, human serotonin transporters (Homo sapiens, UniProt P31645); experiment: Serotonin Transporter Binding Assay; conditions: HEK-hSERT cell membranes, 1 nM [3H]-citalopram, Cheng and Prusoff
T1 construct: expressed in transfected cells; host or cells: HEK-293 (HEK-hSERT), membrane homogenates
T1 sequence (P31645 whole entry): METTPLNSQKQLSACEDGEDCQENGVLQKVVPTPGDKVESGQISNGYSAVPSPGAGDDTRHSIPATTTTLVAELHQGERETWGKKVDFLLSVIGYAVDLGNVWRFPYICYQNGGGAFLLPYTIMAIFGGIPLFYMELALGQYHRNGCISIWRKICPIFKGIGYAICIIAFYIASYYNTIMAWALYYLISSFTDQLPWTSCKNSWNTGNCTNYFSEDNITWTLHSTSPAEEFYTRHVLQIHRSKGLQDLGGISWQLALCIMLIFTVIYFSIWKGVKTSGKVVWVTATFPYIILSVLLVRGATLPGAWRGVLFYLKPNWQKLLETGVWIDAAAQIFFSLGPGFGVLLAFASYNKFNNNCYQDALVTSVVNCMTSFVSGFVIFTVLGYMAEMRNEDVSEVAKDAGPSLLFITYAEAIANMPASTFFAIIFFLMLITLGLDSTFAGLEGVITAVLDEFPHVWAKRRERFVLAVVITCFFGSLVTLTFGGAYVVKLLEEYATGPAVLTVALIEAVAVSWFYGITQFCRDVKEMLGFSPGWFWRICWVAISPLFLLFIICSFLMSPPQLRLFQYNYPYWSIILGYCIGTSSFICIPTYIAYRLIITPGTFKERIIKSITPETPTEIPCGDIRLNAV
Outline: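 Displacement of 1 nM [^3H]-citalopram (1 hr, 25° C, Tris pH 7.4 with NaCl/KCl) from membranes of HEK-293 cells stably expressing human SERT, with bound ligand read after filtration. 10 μM fluoxetine defined non-specific binding. Ki values were derived via Cheng–Prusoff from IC50 displacement-curve midpoints.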

[2] = target: T2, recombinant human dopamine D2L receptors (Homo sapiens, UniProt P14416); experiment: Dopamine Binding Assay; conditions: HEK-D2L cell membranes, 150 pM [3H]-spiperone, Cheng and Prusoff
T2 construct: expressed in transfected cells; host or cells: HEK-293 (HEK-D2L), membrane homogenates
T2 sequence (P14416 whole entry): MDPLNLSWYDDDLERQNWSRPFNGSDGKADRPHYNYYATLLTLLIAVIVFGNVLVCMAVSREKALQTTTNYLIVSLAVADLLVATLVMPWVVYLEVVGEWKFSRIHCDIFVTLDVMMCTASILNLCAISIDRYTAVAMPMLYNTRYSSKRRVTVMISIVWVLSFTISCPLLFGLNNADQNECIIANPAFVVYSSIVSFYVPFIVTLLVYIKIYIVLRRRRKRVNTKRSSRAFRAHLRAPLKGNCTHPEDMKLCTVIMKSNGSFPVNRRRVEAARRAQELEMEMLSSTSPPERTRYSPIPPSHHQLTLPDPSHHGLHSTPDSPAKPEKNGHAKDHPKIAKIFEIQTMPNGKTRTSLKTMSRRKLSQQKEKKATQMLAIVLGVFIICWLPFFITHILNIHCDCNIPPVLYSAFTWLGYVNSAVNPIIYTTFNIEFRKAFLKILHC
Outline: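 Competition binding on HEK-293 membranes stably expressing human D2L (~5 μg protein) with 150 pM [3H]-spiperone, 1.5 h at 22 °C in 50 mM Tris pH 7.4, 1 mM EDTA, 6 mM MgCl2. Filtration read-out; non-specific binding defined with 2 μM (+)butaclamol, Ki by Cheng-Prusoff.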

SMILES	Ki ([1]; read-out: SERT Ki)	Ki [2]	Ki ([1]; SERT Ki (nM))
CCN(C)CC1CC1c1c[nH]c2ccc(F)cc12 (stereo not shown) [Example 133]	10 to 100 nM	100 to 1000 nM	–
CCNC(C)C1CC1c1c[nH]c2ccc(C#N)cc12 (racemic) [Example 126, trans-3-[2-(1-Ethylamino-ethyl)-cyclopropyl]-1H-indole-5-carbonitrile]	10 to 100 nM	100 to 1000 nM	–
N#Cc1ccc2[nH]cc(C3CC3CN3CCCC3)c2c1 (stereo not drawn) [Example 46, trans-2-[5-Cyanoindol-3-yl]-1-[pyrrolidin-1-yl-methyl]-cyclopropane]	1 to 10 nM	100 to 1000 nM	–
CC1CCN(CC2CC2c2c[nH]c3ccc(C#N)cc23)CC1 (stereo not drawn) [Example 33, trans-2-[5-Cyanoindol-3-yl]-1-(4-methyl-piperidin-1-yl-methyl)-cyclopropane]	10 to 100 nM	100 to 1000 nM	–
N#Cc1ccc2[nH]cc([C@@H]3C[C@H]3CNCc3ccccc3F)c2c1 (relative stereo) [Example 11, trans-2-[5-Cyanoindol-3-yl]-1-[N-(2-fluorobenzyl)aminomethyl]-cyclopropane]	1 to 10 nM	100 to 1000 nM	–
N#Cc1ccc2[nH]cc([C@@H]3C[C@H]3CCCN3CCCC3)c2c1 (relative stereo) [Example 179, Trans-2-[5-cyanoindol-3-yl]-1-(3-(1-pyrrolidino)propyl)cyclopropane]	10 to 100 nM	100 to 1000 nM	–
CN(C)C[C@@H]1C[C@H]1c1c[nH]c2ccc(C#N)cc12 [Example 127a, (1R,2R)-trans-2-[5-Cyanoindol-3-yl]-1-(N,N-dimethylaminomethyl)cyclopropane maleate salt]	10 to 100 nM	> 1000 nM	–
Fc1ccc2[nH]cc(C3CC3CNCc3cccnc3)c2c1 (stereo not drawn) [Example 57, trans-2-[5-Fluoroindol-3-yl]-1-[N-(3-pyridylmethyl)aminomethyl]-cyclopropane]	10 to 100 nM	10 to 100 nM	–
CCNCC1CC1c1csc2ccccc12 (stereo not shown) [Example 169, (2-Benzo[b]thiophen-3-yl-cyclopropylmethyl)-ethyl-amine]	10 to 100 nM	100 to 1000 nM	–
N#Cc1ccc2[nH]cc(C3CC3CNCC3CCCCC3)c2c1 (stereo not drawn) [Example 30, trans-2-[5-Cyanoindol-3-yl]-1-[N-cyclohexylmethylaminomethyl]-cyclopropane]	1 to 10 nM	10 to 100 nM	–
CCN(CC)C[C@@H]1C[C@H]1c1c[nH]c2ccc(C#N)cc12 (relative stereo) [Example 48]	1 to 10 nM	100 to 1000 nM	–
N#Cc1ccc2[nH]cc([C@@H]3C[C@H]3CNCCc3ccc(F)cc3)c2c1 (relative stereo) [Example 19, trans-2-[5-Cyanoindol-3-yl]-1-[N-2-(4-fluorophenyl)ethylaminomethyl]-cyclopropane]	1 to 10 nM	10 to 100 nM	–
CC(C)CCNCC1CC1c1c[nH]c2ccc(C#N)cc12 (stereo not drawn) [Example 32, trans-2-[5-Cyanoindol-3-yl]-1-[N-3-methyl-butylaminomethyl]-cyclopropane]	10 to 100 nM	10 to 100 nM	–
CC1CCN(CC2CC2c2c[nH]c3ccc(F)cc23)CC1 (stereo not shown) [Example 140]	100 to 1000 nM	100 to 1000 nM	–
N#Cc1ccc2[nH]cc([C@@H]3C[C@H]3CNCCc3cccnc3)c2c1 (relative stereo) [Example 20, trans-2-[5-Cyanoindol-3-yl]-1-[N-2-(3-pyridyl)ethylaminomethyl]-cyclopropane]	1 to 10 nM	> 1000 nM	–
COc1ccccc1CCNC[C@@H]1C[C@H]1c1c[nH]c2ccc(C#N)cc12 (relative stereo) [Example 41]	1 to 10 nM	10 to 100 nM	–
N#Cc1ccc2[nH]cc([C@@H]3C[C@H]3CNCCc3cccc(F)c3)c2c1 (relative stereo) [Example 18, trans-2-[5-Cyanoindol-3-yl]-1-[N-2-(3-fluorophenyl)ethylaminomethyl]-cyclopropane]	1 to 10 nM	10 to 100 nM	–
N#Cc1ccc2[nH]cc(C3CC3CN3CCOCC3)c2c1 (stereo not shown) [Example 137]	–	> 1000 nM	10 to 100 nM
CCCNCC1CC1c1c[nH]c2ccc(F)cc12 (stereo not shown) [Example 142]	10 to 100 nM	100 to 1000 nM	–
CNCC1CC1c1c[nH]c2ccc(C#N)cc12 (racemic) [Example 119, trans-2-[5-Cyanoindol-3-yl]-1-(N-methylaminomethyl)cyclopropane]	1 to 10 nM	100 to 1000 nM	–
CCCNC[C@@H]1C[C@H]1c1c[nH]c2ccc(C#N)cc12 (relative stereo) [Example 45]	10 to 100 nM	100 to 1000 nM	–
CCN(CC)C(C)C1CC1c1c[nH]c2ccc(C#N)cc12 (racemic) [Example 123, trans-3-[2-(1-Diethylamino-ethyl)-cyclopropyl]-1H-indole-5-carbonitrile]	–	> 1000 nM	10 to 100 nM
CN(C)C[C@@H]1C[C@H]1c1c[nH]c2ccc(F)cc12 [Example 128a, (1R,2R)-trans-1-(N,N-dimethylaminomethyl)-2-[5-fluoroindol-3-yl]-cyclopropane maleate salt]	10 to 100 nM	> 1000 nM	–
CC(C1CC1c1c[nH]c2ccc(C#N)cc12)N1CCCC1 (stereo not drawn) [Example 124, trans-3-[2-(1-Pyrrolidin-1-yl-ethyl)-cyclopropyl]-1H-indole-5-carbonitrile]	–	> 1000 nM	1 to 10 nM
CCN(C)CCCC1CC1c1c[nH]c2ccc(C#N)cc12 (stereo not drawn) [Example 178, Trans-2-[5-cyanoindol-3-yl]-1-(3-(N-ethyl-N-methylamino)propyl)-cyclopropane]	10 to 100 nM	100 to 1000 nM	–

Second part, led by results:

Ki ([1]; read-out: SERT Ki)	Ki [2]	SMILES	Ki ([1]; SERT Ki (nM))
10 to 100 nM	> 1000 nM	CN(C)CC1CC1c1csc2ccccc12 (single isomer, unassigned; (+)) [Example 190B, (+)-(2-Benzo[b]thiophen-3-yl-cyclopropylmethyl)-dimethyl-amine]	–
1 to 10 nM	100 to 1000 nM	CCOC(=O)NCCCN(C)C[C@@H]1C[C@H]1c1c[nH]c2ccc(C#N)cc12 (relative stereo) [Example 90, trans-2-[5-Cyanoindol-3-yl]-1-[N,N-methyl-2-amino(ethylcarbamoyl)propylaminomethyl]-cyclopropane]	–
1 to 10 nM	100 to 1000 nM	CN(Cc1ccccc1)CC1CC1c1c[nH]c2ccc(F)cc12 (stereo not shown) [Example 131]	–
1 to 10 nM	> 1000 nM	CN(Cc1ccccc1)CC1CC1c1c[nH]c2ccc(F)cc12 (stereo not drawn) [Example 186, cis-1-(N-benzyl-N-methylaminomethyl)-2-[5-fluoroindol-3-yl]-cyclopropane]	–
10 to 100 nM	100 to 1000 nM	COC(=O)NCCCN(C)C[C@@H]1C[C@H]1c1c[nH]c2ccc(F)cc12 (relative stereo) [Example 104, trans-2-[5-Fluoroindol-3-yl]-1-[N,N-methyl-2-amino(methylcarbamoyl)propylaminomethyl]-cyclopropane]	–
1 to 10 nM	100 to 1000 nM	CCOC(=O)NCCN(CC)C[C@@H]1C[C@H]1c1c[nH]c2ccc(F)cc12 (relative stereo) [Example 109]	–
1 to 10 nM	> 1000 nM	CCCOC(=O)NCCN(CC)C[C@@H]1C[C@H]1c1c[nH]c2ccc(C#N)cc12 (relative stereo) [Example 95, trans-2-[5-Cyanoindol-3-yl]-1-[N,N-ethyl-2-amino(propylcarbamoyl)ethylaminomethyl]-cyclopropane]	–
10 to 100 nM	100 to 1000 nM	Fc1cccc(CCNCC2CC2c2c[nH]c3ccc(F)cc23)c1 (stereo not drawn) [Example 60, trans-2-[5-Fluoroindol-3-yl]-1-[N-(3-fluorophenyl)ethylaminomethyl]-cyclopropane]	–
10 to 100 nM	100 to 1000 nM	CC(C)OC(=O)NCCCN(C)C[C@@H]1C[C@H]1c1c[nH]c2ccc(F)cc12 (relative stereo) [Example 107, trans-2-[5-Fluoroindol-3-yl]-1-[N,N-methyl-2-amino(isopropylcarbamoyl)propylaminomethyl]-cyclopropane]	–
10 to 100 nM	10 to 100 nM	Fc1ccc2[nH]cc(C3CC3CN3CCN(Cc4ccccc4)CC3)c2c1 (stereo not drawn) [Example 75, trans-1-[4-Benzyl-piperazin-1-yl-methyl]-2-[5-fluoroindol-3-yl]-cyclopropane]	–
10 to 100 nM	> 1000 nM	CN(C)CC1CC1c1csc2ccccc12 (stereo not shown) [Example 167, (2-Benzo[b]thiophen-3-yl-cyclopropylmethyl)-dimethyl-amine]	–
10 to 100 nM	10 to 100 nM	COc1cccc(CCNC[C@@H]2C[C@H]2c2c[nH]c3ccc(F)cc23)c1 (relative stereo) [Example 81]	–
10 to 100 nM	100 to 1000 nM	Fc1ccc2[nH]cc(C3CC3CNCc3cccs3)c2c1 (stereo not drawn) [Example 66, trans-2-[5-Fluoroindol-3-yl]-1-[N-2-thiopheneylmethylaminomethyl]-cyclopropane]	–
1 to 10 nM	> 1000 nM	CCOC(=O)NCCN(C)CC1CC1c1c[nH]c2ccc(C#N)cc12 (stereo not shown) [Example 134]	–
10 to 100 nM	> 1000 nM	CN(CC1CC1c1c[nH]c2ccc(C#N)cc12)c1ccccc1 (stereo not shown) [Example 138]	–
10 to 100 nM	> 1000 nM	CCN(CCCNC(=O)OC(C)C)C[C@@H]1C[C@H]1c1c[nH]c2ccc(C#N)cc12 (relative stereo) [Example 100, trans-2-[5-Cyanoindol-3-yl]-1-[N,N-ethyl-2-amino(isopropylcarbamoyl)propylaniinomethyl]-cyclopropane]	–
